Assay results from patent US9511074B2, “Methods of treating disorders associated with protein polymerization” (UNIVERSITY OF PITTSBURGH—OF THE COMMONWEALTH SYSTEM OF …, priority 2009, dated 2016).
Residues, ends and D or L forms follow the SMILES beside them. *: point of attachment. Cbz = O=C(OCc1ccccc1)*

How the values were obtained:
[1] = system: ATZ in the HTO/Z cell line; assay: ATZ levels in HTO/Z cells in the presence of proteasomal inhibitors with or without CBZ; format: cell-based, human; conditions: for levels of ATZ with proteasomal inhibitor alone: no CBZ; for levels of insoluble ATZ in the presence of CBZ: proteasomal inhibitor added for last 6 hours
Method: For experiments in which proteasomal inhibitors were used, MG132 was used at 30 μM and lactacystin at 10 μM for the last 6 hours of the incubation with CBZ or control. Cells that were incubated with MG132 or lactacystin alone served as control to validate that the proteasome was inhibited. For investigation of LC3 conversion, lysosomal inhibitors (E64D and pepstatin A at 20 μg/ml) were added to the medium for the last 4 hours of the incubation with CBZ or control. […] If the number of separate experiments done in the cell line models is not specifically indicated in the text or figure legend, at least 3 separate experiments were done in each case.
(§1) For immunoblot analysis to detect AT, GAPDH or LC3, cells were lysed in 50 mM Tris-HCl, 150 mM NaCl, 1% NP-40, pH 8.0. Protein levels were quantified using the BCA protein assay (Pierce Biotechnology, Rockford, Ill.). 10-50 μg samples were loaded onto 7.5% precast gels. PVDF membranes were blocked in TBS, 0.5% Tween 20 (TBST), 5% milk and then incubated with primary antibody in 5% milk TBST solution. Horseradish peroxidase anti-goat Ig or anti-mouse Ig (Jackson Labs, Bar Harbor, Me.) were used as secondary antibodies in TBST. Blots were visualized with Super Signal West Dura or West Femto from Pierce.

[2] = system: ATZ in the HTO/Z cell line; assay: Steady state levels of ATZ in the HTO/Z cell line (immunoblot of insoluble and soluble fractions); format: cell-based, human; conditions: HTO/Z cells
Excerpt: Cell Lines The human epidermal HeLa cell line with doxycycline-regulated expression of ATZ (HTO/Z) has been described previously (1). HTO/M and HTO/Saar are HeLa cell lines with doxycycline-regulated expression of wild type AT and the AT Saar variant, respectively (1). A murine embryonic fibroblast cell line (MEF) with targeted disruption of Atg5 (2) was engineered for stable expression of ATZ using the previously described pRc/RSV-ATZ expression plasmid (3). A wild type MEF cell line was also engineered for stable expression of ATZ in the same way to serve as control. For experiments with CBZ, the inducible cell lines were cultured in the absence of doxycycline for at least 4 weeks for maximal expression of AT. The cells were then subcultured into separate monolayers in fresh complete growth medium and incubated for 48 hours in the absence or presence of CBZ or rapamycin (RAP). CBZ or RAP were added to the growth medium. The duration of incubation with CBZ was determined to be optimal at 48 hours based on experiments in which the duration was varied from 12 to 72 hours. Doses of CBZ were based on previous studies of its effects in cell lines (5,6). Doses of RAP were based on previous positive effects on autophagic disposal of polyglutamine-repeat proteins (7). After the incubation cells were homogenized and cell homogenates separated into insoluble and soluble fractions according to our previously established technique (8). Samples of 20 μgs each were subjected to immunoblot analysis for AT, BiP and GAPDH.
as §1

ATZ in the liver = assay: Hepatic load of ATZ in vivo in PiZ×GFP-LC3 mice (immunoblot, globule histology); design: species or system mouse; conditions: PiZ mice, 2 mg/kg/day intraperitoneal for 2 weeks, FIG. 5C
Excerpt: Transgenic Mice PiZ mice that have been bred into the C57/BL6 background have been described previously (1). For the second and third series of experiments with CBZ we used PiZ mice that were re-derived onto the FVB/N background for a move into a new animal facility. The transgene that was used to generate the PiZ mouse is a genomic fragment of DNA that contains the coding regions of the ATZ gene together with introns and ˜2 kilobases of upstream and downstream flanking regions (10). […] In this perspective it is not an exact phenocopy of the classical form of AT deficiency. In particular it cannot be a model for the loss-of-function mechanisms associated with the classical form of AT deficiency. It is known to have abundant expression of ATZ in hepatocytes and other cell types that express ATZ in humans (11). In the liver there are abundant ATZ-containing intrahepatocytic globules and inflammation that is characteristic of what is seen in the human liver (11,12). […] Taken together, these observations indicate that the PiZ mouse is an appropriate model for the gain-of-toxic function mechanism that is responsible for liver damage in the classical form of AT deficiency. Indeed, the fact that these mice are endowed with endogenous AT function and therein normal levels of AT in the serum and body fluids make them an even more ‘pure’ model for liver damage by gain-of-toxic function. PiZ×GFP-LC3 mice, which generated green fluorescent autophagosomes, have been described previously (2). PiZ×IKKβ.hep were generated by mating of PiZ to IKKβ.hep, which has conditional hepatocyte-specific disruption of NF.B activation (M. Karin, 17). There is increased injury in the liver of these mice as evidenced by the hepatic hydroxyproline content, 153.3% of that in the PiZ mouse (FIG. 7).
Histology Sections of liver tissue were stained with hematoxylin and eosin, PAS, PAS after diastase treatment, TUNEL, PCNA, Ki67 and Sirius Red using standard techniques (18). Previous methods for staining with antibody to smooth muscle actin were used (19). Each was examined by the pathologist (GM) who was completely blinded to the experimental protocol. […] The number of inflammatory nodules, AT-containing globules and autophagosomes were each quantified blindly by counting cells in 6 microscopic fields of 10 different sections for each liver. The number of nuclei, as determined by Hoechst staining, was used to exclude the possibility that different numbers of cells were counted in liver sections from mice treated with CBZ as compared to controls. Hepatic hydroxyproline concentration was determined by a well-established protocol (20,21). […]
For immunoblot on liver, the liver was snap frozen in liquid nitrogen and stored at −80° C. […] Total protein concentration was measured by BCA assay (Pierce). […]

[3] = 48 hours incubation, immunoblot

CC(C)C[C@@H](C=O)NC(=O)[C@H](CC(C)C)NC(=O)[C@H](CC(C)C)NC(=O)OCc1ccccc1 [MG132] (Cbz-Leu-Leu-Leu-aldehyde)
levels of ATZ with proteasomal inhibitor alone [1]: Increased levels | levels of insoluble ATZ in the presence of CBZ [1]: no effect

NC(=O)N1c2ccccc2CC(=O)c2ccccc21 [OBZ, 10,11-dihydro-10-oxo-5H-dibenz[b,f]azepine-5-carboxamide]
steady-state levels of ATZ, insoluble fraction [2, 3]: marked decrease | steady-state levels of ATZ, soluble fraction [2, 3]: minimal effect | lowest dose with evident effect on insoluble ATZ ([2]; 48 hrs, FIG. 9): 0.1 µM

CC(=O)N[C@@H](CSC(=O)[C@]1([C@@H](O)C(C)C)NC(=O)[C@H](C)[C@@H]1O)C(=O)O [lactacystin]
levels of ATZ with proteasomal inhibitor alone [1]: Increased levels | reversal of the effect of CBZ on levels of soluble ATZ ([1]; lactacystin 10 μM for last 6 hours of CBZ incubation, mean SD, n=3): 23.1±14.0% | levels of insoluble ATZ in the presence of CBZ [1]: no effect

CO[C@H]1C[C@@H]2CC[C@@H](C)[C@@](O)(O2)C(=O)C(=O)N2CCCC[C@H]2C(=O)O[C@H]([C@H](C)C[C@@H]2CC[C@@H](O)[C@H](OC)C2)CC(=O)[C@H](C)/C=C(\C)[C@@H](O)[C@@H](OC)C(=O)[C@H](C)C[C@H](C)/C=C/C=C/C=C/1C [rapamycin]
hepatic ATZ levels (ATZ in the liver): no effect | ATZ levels (insoluble and soluble fractions) ([2]; 48-hour incubation, FIG. 1B): no effect
